Data taken from publication PMC7509637 (Advanced Science, 2020).
Entries after “also recorded” stand apart in the source; their conditions may differ.

B1: FapCS: FapC seeds obtained by sonication of mature FapC fibrils (P. aeruginosa) (protein)
chain: GNEGGWHPPKPNPQSNNKGGATALVVDTQQNYNNKVSNFGTLNNASVSGSIKDASGNVGVNVAAGDNNQQANAAALASADASFVFGTATASTSVLQSGYGNTLNNYSNPNTASLSNSANNVSGNLGVNVAAGNFNQQKNDLAAAVSNGQYSTAGSAASQTSTGNTTVNSANYAYGGTYVSLKLNADGSYKGTSDQIGDVYLDTWEGQTHPGGSNTGHIDVDSQAQGAKDLNHDGGAFAFKEKGDVDLKGTVSGFIPAIVGFKTPVTNNASLSNSLQNVSGNVGVNIAAGGGNQQSNSLSIAAGCSSCPAGGESLGF

Columns and labels:
Assay type in all cases: in vivo, zebrafish (AB, Danio rerio)
zebrafish larvae [1] = assay: Congo red imaging of Aβ fibrillization in zebrafish larval brain; details: for Congo red fluorescence / Aβ fibrillization in larval brain (in words): 2 d postinjection
Protocol: (§1) Aβ (HFIP‐treated) was dissolved in PBS (pH 7.4) to make a stock solution. Aβ (100 × 10^−15 M) was injected into the cerebroventricular space of one week old zebrafish larvae. Aβ with FapCS was injected at a 10:1 molar ratio (Aβ:FapCS, 100 × 10^−15:10 × 10^−15 M). PBS alone and untreated larvae were used as negative controls. Zebrafish larvae were anesthetized by adding a few drops of tricaine (0.4%) in the petri dish. When larvae stopped to move in response to the tapping stimuli, the larvae were transferred to an injection template made from 1% agarose gel. Microinjection of Aβ was performed with a calibrated microneedle and pneumatic microinjection system (PV830 WPI), under a stereomicroscope. The injection pressure was set to 20 psi, the injection volume was 10 nL, and the injections were made with a micromanipulator. The tip of the needle was inserted into the ventricular space of larvae and penetration across the soft skin of dorsal tissue (central meeting point of both telencephalons) was not more than 0.3 mm. After microinjection, the larvae were transferred to the fresh Holtfreter's buffer in petri dish and incubated at 28 ± 0.5 °C for further observation.
To monitor Aβ fibrillization in the brain of zebrafish larvae, the Aβ or Aβ + FapCS injected larvae were further injected with Congo red 2 days or one week posttreatment. Congo red (100 × 10^−15 M) was injected to the cerebroventricular space of the zebrafish larvae and placed back in Holtfreter's buffer (1 h) to allow staining of Aβ plaques in the brain tissues of larvae and elimination of excess dye. Whole mount imaging of zebrafish larvae was performed via the brightfield and red fluorescence channels of a fluorescence microscope. All images were captured under the same exposure and intensity settings of the microscope. Relative red fluorescence intensities were measured from the images by using Fiji ImageJ and represented as fraction of 1. Aβ at one week was considered as a positive control (100% or fraction 1) while buffer only was considered as a negative control (0% or fraction 0).

zebrafish larvae [2] = assay: Behavioral pathology of zebrafish larvae (Zebrabox); details: 2 d postinjection, 1 h observation
Protocol: as §1, with “After microinjection, the larvae were transferred to the fresh Holtfreter's buffer in petri dish and incubated at 28 ± 0.5 °C for further observation.” left out
Behavior of zebrafish larvae was observed by an automated zebrafish behavior recording system Zebrabox (Viewpoint). […] The trajectories of the zebrafish movements were also recorded by the instrument and all behavior measurements were done in a 96‐well plate with one larva per well. […]

adult zebrafish brain = assay: Synaptophysin IHC in brain of adult zebrafish; details: for synaptophysin-positive synapses/cells (in words): n = 3
Protocol: Adult zebrafish (10 months) were employed for the study. Prior to microinjection, adult zebrafish were anesthetized by placing them in a beaker filled with ice‐chilled tricaine (0.01% in Holtfreter's buffer) for 20 s. The samples of Aβ alone and Aβ with FapCS or bacterial biofilm fragments were injected to the cerebroventricular space of adult fish with a 1 µL Hamilton glass syringe. The concentration of the Aβ peptide was 40 × 10^−6 M (in PBS, pH 7.4) while FapCS or biofilm fragments were included at a 10:1 ratio (Aβ:FapCS or biofilm fragments). The needle penetrated between left and right telencephalon for not more than 1 mm and injection volume was 1 µL. The syringe was washed with ethanol and PBS in between the injections. The injections were made under a stereomicroscope and fish were held in place with forceps. After microinjection, the fish was placed back in the water tank for recovery.
The deposition of Aβ, depletion of synaptophysin positive cells and TUNEL assay were measured by IHC. The adult fish, at 4 d or 2 weeks postinjection with Aβ and Aβ with FapCS or biofilm fragments, were euthanized by placing in ice‐chilled tricaine (0.4% in Holtfreter's buffer) for 1 min. The head of the fish was separated at pectoral fin point with a sharp blade and fixed in paraformaldehyde as described in the “Animal husbandry and ethics statement” section. The fixed heads were dehydrated by dipping in gradual concentration of ethanol, i.e., 20%, 40%, 60%, 80%, and 100% with 10 min at each step. The heads were treated with 20% sucrose overnight, mounted with Tissue Trek OCT mounting medium at −20 °C. The heads were then sectioned into […] section with a cryostat. The sections were mounted on a gelatinized glass slide and immunostained with antibodies. The sections were dried, washed thrice in PBS (pH 7.4), and TritonX‐100 (0.05% in PBS) for 5 min each. […] The sections were imaged by a fluorescence microscope and fluorescence intensities were measured from the images with Fiji ImageJ analysis.

Row | Molecule | Congo red fluorescence / Aβ fibrillization in larval brain (in words) (zebrafish larvae [1]) | larval swimming behavior (in words) (zebrafish larvae [2]) | synaptophysin-positive synapses/cells (in words) (adult zebrafish brain; 2 weeks postinjection) | synaptophysin-positive synapses/cells (in words) (adult zebrafish brain; 4 d postinjection) | Congo red fluorescence in larval brain (in words) (zebrafish larvae [1]; one week postinjection, Figure S12A) | synapse health (in words) (adult zebrafish brain; FapCS alone, 4 × 10^−6 M, Figure S13)
1 | amyloid beta [Aβ] | no fibrillization was observed | slightly lower movement frequency | neurodegeneration of synaptophysin positive cells; also recorded: degenerate synaptophysin‐positive synapses | synaptophysin positive neuronal cells | – | –
2 | B1 | insignificant fluorescence was observed; also recorded: did not show any retention of Congo red fluorescence in the brain | significantly aggravated (**, P < 0.005) Aβ toxicity and reduced the movement frequency and total travel distance | – | – | insignificant fluorescence was observed | Healthy synapses
